Read-outs that look alike come from different tables or passages of the source. Numbered stars: 1 amine (or outer) side, 2 acyl side, 3 side chain; on linkers, the order of the positions; unused ones are H or OH. Square brackets hold non-standard residues; d marks the D form. Peptide text beside a SMILES is read from it. * marks the point of attachment. Pteroyl = Nc1nc2ncc(CNc3ccc(C(=O)*)cc3)nc2c(=O)[nH]1; γGlu = O=C(O)[C@H](CCC(=O)[*:2])N[*:1]; Dab = NCC[C@H](N)C(=O)O
Assays:
[1] = tested on: SNORA18; conditions: SNORA18 siRNA (SEQ ID NOs: 5 and 6) in combination; Dab8 1 eq, Fol-Dab8A 3 eq, Fol-Dab8B 1 eq; S2-013 cells, 48 hours
Protocol: (§1) Scrambled control siRNA (SEQ ID NOs: 3 and 4), SNORA18 siRNA (SEQ ID NOs: 5 and 6), NUP85 siRNA (SEQ ID NOs: 7 and 8), WASF2 siRNA (SEQ ID NOs: 9 and 10), and SNORA22 siRNA (SEQ ID NOs: 11 and 12), to which a cationic oligopeptide or a folic acid-cationic peptide was added (a complex of Dab8 with siRNA in 1 equivalent, a complex of Fol-Dab8A with siRNA in 3 equivalents, and a complex of Fol-Dab8B with siRNA in 1 equivalent), were each added to the culture solution the S2-013 cells in a 6-well plate (Thermo Fisher Scientific Inc.) (1.0×10^5 cells/well), and the cells were recovered after 48 hours.
(§2) Semi-quantitative RT-PCR was performed using RNA from the recovered cells to confirm the knockdown effects of SNORA18, NUP85, WASF2, and SNORA22 in the cells.
(§3) Specifically, the total RNA obtained from the S2-013 cells was reverse-transcribed using StrataScript reverse transcriptase (Agilent) and random primers. Appropriate dilutions of each single-stranded cDNA were prepared for subsequent PCR amplification. GAPDH mRNA was used as an internal quantitative control.
(§4) PCR reactions were performed on a TaKaRa PCR Thermal Cycler Dice Gradient with initial denaturation at 94° C. for 2 minutes, followed by 94° C. for 30 seconds, 58° C. for 30 seconds, and 72° C. for 1 minute for 21 cycles (for GAPDH) or 25 cycles (for SNORA18, NUP85, WASF2, and SNORA22). Scanning and densitometric analysis for band intensity measurements were performed using the Quantity One analysis system (Bio-Rad).

[2] = tested on: WASF2; conditions: WASF2 siRNA (SEQ ID NOs: 9 and 10) in combination; Dab8 1 eq, Fol-Dab8A 3 eq, Fol-Dab8B 1 eq; S2-013 cells, 48 hours
Protocol: as §1, §2, §3, §4

[3] = tested on: SNORA22; conditions: SNORA22 siRNA (SEQ ID NOs: 11 and 12) in combination; Dab8 1 eq, Fol-Dab8A 3 eq, Fol-Dab8B 1 eq; S2-013 cells, 48 hours
Protocol: as §1, §2, §3, §4

[4] = tested on: NUP85; conditions: NUP85 siRNA (SEQ ID NOs: 7 and 8) in combination; Dab8 1 eq, Fol-Dab8A 3 eq, Fol-Dab8B 1 eq; S2-013 cells, 48 hours
Protocol: as §1, §2, §3, §4

[5] = tested on: pancreatic cancer tissue of mice carrying human pancreatic cancer organoids derived from S2-013 pancreatic cancer cells; conditions: for delivery of SNORA22 siRNA to pancreatic cancer tissue: 5 μg siRNA tail vein, 24 hours
Protocol: Human pancreatic cancer organoids were prepared using 52-013 pancreatic cancer cells by modifying the method described in JP Patent Application Publication No. 2018-110575 A1.
Specifically, the S2-013 pancreatic cancer cells (20×10^4 cells), human mesenchymal stem cells MSC (LONZA, 40×10^4 cells), and human umbilical vein endothelial cells HUVEC (LONZA, 14×10^4 cells) were added to DMEM/Matrigel mixed solution in a 48-well plate (Thermo Fisher Scientific Inc.) and incubated in a CO2 incubator at 37° C. for 30 minutes.
Then, 300 μL/well of DMEM/EGM mixed solution was added thereto and incubated again at 37° C. for 24 hours to prepare one pancreatic cancer organoid in each well.
Subsequently, the skin on the flank of nude mice (6-week-old BALB/cSlc-nu/nu (Pathogen-free female athymic nude mice), Japan SLC, Inc.) was incised, and the pancreatic cancer organoids obtained above were subcutaneously transplanted (2 mice in each group).
Six weeks after transplantation, the chemically-modified SNORA22 siRNA (SEQ ID NOs: 27 and 28, 5 μg) labeled with Alexa-594 was administered with 1, 2, or 3 equivalents of the cationic oligopeptide (Dab8) or the folic acid-cationic oligopeptide complex (Fol-Dab8A or Fol-Dab8B) by tail vein injection. After 24 hours, images were taken with an in vivo imager.
Measuring instrument: Spectrum In Vivo Imaging System (PerkinElmer, Inc., Waltham, Mass.)
Measurement condition: kexc 640 nm, kemi 680 nm
In the same manner as in Example 11, the delivery of chemically-modified SNORA18 siRNA (SEQ ID NOs: 21 and 22) to pancreatic cancer-carrying mice when administered with the folic acid-cationic oligopeptide complex (Fol-Dab8A or Fol-Dab8B) was imaged using an in vivo imager.
In the same manner as in Examples 11 and 13, the delivery of chemically-modified WASF2 siRNA (SEQ ID NOs: 25 and 26) to pancreatic cancer-carrying mice when administered with the folic acid-cationic oligopeptide complex (Fol-Dab8A or Fol-Dab8B) was imaged using an in vivo imager.

[6] = tested on: S2-013 pancreatic cancer cells or HPNE normal pancreatic duct epithelial cells; conditions: chemically-modified Alexa488-labeled SNORA22 siRNA, 2 equivalents, overnight
Source text: Chemically-modified SNORA22 siRNA (SEQ ID NOs: 27 and 28) prepared in Example 7 was labeled with Alexa488 (Thermo Fisher Scientific Inc.) and added with the folic acid-cationic oligopeptide complex (Fol-Dab8B, 2 equivalents) to the culture solution of S2-013 pancreatic cancer cells or HPNE normal pancreatic duct epithelial cells (ATCC) in a 4-well chamber (Thermo Fisher Scientific Inc.) (5×10^4 cells/well).

[7] = chemically-modified SNORA18 siRNA, 1 to 3 equivalents
[8] = chemically-modified WASF2 siRNA, 1 to 3 equivalents
[9] = compared to Dab8, 1 to 3 equivalents

Compound	knockdown effect on SNORA18 [1]	knockdown effect on WASF2 [2]	knockdown effect on SNORA22 [3]	knockdown effect on NUP85 [4]	delivery of SNORA18 siRNA to pancreatic cancer tissue ([5]; 1 equivalent)	delivery of SNORA18 siRNA to pancreatic cancer tissue ([5]; 3 equivalents)	delivery of SNORA22 siRNA to pancreatic cancer tissue ([5]; 3 equivalents)	delivery of SNORA18 siRNA to pancreatic cancer tissue [5, 7]	delivery of WASF2 siRNA to pancreatic cancer tissue [5, 8]	delivery of SNORA22 siRNA to pancreatic cancer tissue [5, 9]	uptake of SNORA22 siRNA into S2-013 pancreatic cancer cells relative to normal cells (HPNE) [6] [fold]	delivery of WASF2 siRNA to pancreatic cancer tissue ([5]; 1 equivalent)	delivery of SNORA22 siRNA to pancreatic cancer tissue ([5]; 2 equivalents)	delivery of WASF2 siRNA to pancreatic cancer tissue ([5]; 3 equivalents)
NCC[C@H](NC(=O)[C@H](CCN)NC(=O)[C@H](CCN)NC(=O)[C@H](CCN)NC(=O)[C@H](CCN)NC(=O)[C@H](CCN)NC(=O)[C@H](CCN)NC(=O)[C@H](CCN)NC(=O)CNC(=O)CNC(=O)CNC(=O)CC[C@H](NC(=O)c1ccc(NCc2cnc3nc(N)[nH]c(=O)c3n2)cc1)C(=O)O)C(N)=O [Fol-Dab8A] ({Pteroyl-γGlu}-GGG[Dab][Dab][Dab][Dab][Dab][Dab][Dab][Dab]-NH2)	remarkable knockdown effects	remarkable knockdown effects	remarkable knockdown effects	remarkable knockdown effects	high concentration	high concentration	high concentration	enhanced	enhanced	enhanced	–	–	–	–
NCC[C@H](NC(=O)[C@H](CCN)NC(=O)[C@H](CCN)NC(=O)[C@H](CCN)NC(=O)[C@H](CCN)NC(=O)[C@H](CCN)NC(=O)[C@H](CCN)NC(=O)[C@H](CCN)NC(=O)CNC(=O)CNC(=O)CNC(=O)[C@H](CCC(=O)O)NC(=O)c1ccc(NCc2cnc3nc(N)[nH]c(=O)c3n2)cc1)C(N)=O [Fol-Dab8B] (Pteroyl-EGGG[Dab][Dab][Dab][Dab][Dab][Dab][Dab][Dab]-NH2)	remarkable knockdown effects	remarkable knockdown effects	remarkable knockdown effects	remarkable knockdown effects	–	–	–	enhanced	enhanced	enhanced	~3	high concentration	high concentration	high concentration

From patent US20220380763A1, “NUCLEIC ACID DELIVERY ENHANCER” (NATIONAL UNIVERSITY CORPORATION KOCHI UNIVERSITY, priority 2019, published 2022)
